These results are taken from patent publication US10201528B2, “Method of treating multiple sclerosis” (Assistance Publique Hopitaux De Paris, priority 2012, dated 2019).

Assay [1] concerns patients with a progressive form of multiple sclerosis. Description: Clinical cases: patients with progressive multiple sclerosis treated with biotin. It is filed as in vivo, human. As to the method:
Three patients with a progressive form of multiple sclerosis received biotin. […]
A person, without any particular personal history. […] Treatment with interferon Ib (betaferon) began in February 2008.
Three Solumedrol infusions were carried out in September 2010 and then 4 infusions between 8 and 11 Aug.
Treatment with biotin was then introduced on 6 Mar. 2012 at the dose of 100 mg/day until March 30 and then 200 mg/day from April 6 to 6 May 2012 then 300 mg/day from 6 May 2012 to 7 Jun. 2012. Two complete ophthalmological examinations were carried out during this period of time: a first on 30 Mar. […]

The test system of assay [2] is multiple sclerosis. Particulars: attacks less numerous and less severe, improvement of lesions visible by MRI; cited from earlier work.
[3] abbreviates: patient 1, after six months of treatment.
[4] abbreviates: patient 1, biotin 100 mg three times a day, three months.

“Also recorded” adds a separate entry of the source.

Turning to `C[C@H]1C[C@@H]2[C@H]([C@@H](O)C[C@@]3(C)[C@H]2CC[C@]3(O)C(=O)COC(=O)CCC(=O)O)[C@@]2(C)C=CC(=O)C=C12` [Solumedrol], the diplopia-type attack result in assay [1] (patient 2, July 2008, infusions) was “regressive”. The “progressive decrease in visual acuity” value in assay [1] (patient 2, three infusions September 2010 and 4 infusions 8-11 Aug. 2011, before biotin) is given as “without any effect”. The “evolvement of left homonymous lateral hemianopsia” value in assay [1] (patient 3, 2004, after 3 infusions, symptomology subsequently reappeared) is reported as “initially been favourable”.
In the case of `O=C(O)CCCC[C@@H]1SC[C@@H]2NC(=O)N[C@@H]21` [biotin], in assay [1] (setting [3]), the “brain MRI spectro: choline peak and choline/creatine ratio” value is given as “clear decrease”; the “visual evoked potentials: P100 wave on the right” value is on record as “beginnings of a P100 wave on the right”. The “visual evoked potentials: latency of left P100 wave” value in assay [1] (patient 1, biotin 100 mg three times a day, after six months of treatment) is 111.8 ms. Besides, in assay [1] (setting [4]), the “MRI and brain MRI spectro” value is recorded as “unchanged”; the balance result is given as “more assured”; the “visual evoked potentials: P100 wave on the left” value is recorded as “reappearance of a P100 wave on the left”; the “visual evoked potentials: P100 wave on the right” value is recorded as “no response was noted on the right”. In addition, the “visual evoked potentials: latency of left P100 wave” value in assay [1] (setting [4]) stood at 126.5 ms. The “visual acuity on the left” value in assay [1] (patient 1, biotin 100 mg three times a day, three months later (before treatment 2/10 on the left)) is 2/10. The “visual acuity on the right” value in assay [1] (patient 1, biotin 100 mg three times a day, three months later (before treatment could only count fingers on the right)) was 5/10. In addition, the “visual evoked potentials: P100 wave” value in assay [1] (patient 1, biotin increased to 600 mg/day, after nine months of treatment) is listed as “bilateral P100 wave was noted”. Besides, the motor problems result in assay [1] (patient 1, discussion) is “corrected and were stabilized”. Also, in assay [1] (patient 1, long-term treatment), the “balance between beginning of treatment and last visit” value is on record as “also remained stable”. The “visual acuity between beginning of treatment and last visit” value in assay [1] (patient 1, long-term, 300 mg/day for 15 months then 100 mg/day for 9 months) is “remained stable”. Also, in assay [1] (patient 2, biotin 100 mg/day from 6 Mar. 2012, examination 30 Mar. 2012), the “visual acuity compared with examination before treatment” value is “no improvement”. Besides, the “visual field (automated campimetry): homonymous lateral hemianopsia” value in assay [1] (patient 3, biotin 100 mg/day begun 12 Apr. 2012, examination 30 Jun. 2012) is given as “improvement in the visual field in the upper left quadrant; also recorded: clear improvement”. Further, in assay [1] (the three patients), the “time to improvement after introduction of the treatment” value is listed as “within three months”.
Take glatiramer acetate: the “efficacy in multiple sclerosis” value in assay [2] is “proven to be effective”.
